Source: PMC10600239, “Selective MCL-1 inhibitor ABBV-467 is efficacious in tumor models but is associated with cardiac troponin increases in patients” (Communications Medicine, 2023)

Experiment: Phase 1 first-in-human study (NCT04178902): safety
Assay type: in vivo
Description: This FIH study (NCT04178902) for ABBV-467 was a multicenter, open-label, dose-escalation study enrolling patients aged ≥18 years who had R/R MM, with the option to enroll R/R AML once recommended phase 2 dose (RP2D) was established. The study design was originally planned to consist of 2 parts: dose escalation and dose expansion, including a minimum of 6 patients treated during dose escalation at what was ultimately to be declared the RP2D. Patients must have received 3 or more prior lines of therapy including at least 1 or more immunomodulatory agents, 1 or more proteasome inhibitors, and 1 or more anti-CD38 monoclonal antibodies. Other eligibility criteria included: Eastern Cooperative Oncology Group performance status ≤2, measurable disease as defined by International Myeloma Working Group (IMWG) consensus criteria, an echocardiogram with an ejection fraction ≥50%, and adequate hematologic, hepatic, and renal function. The prespecified primary objectives were to characterize the safety and toxicity profiles, to establish the RP2D, and to determine the pharmacokinetic (PK) profile of ABBV-467 monotherapy. Safety evaluations included, but were not limited to, adverse event (AE) monitoring, physical examinations, vital sign measurements, electrocardiogram (ECG), cardiac enzyme monitoring, and clinical laboratory testing (hematology and chemistry) as a measure of safety and tolerability for the entire study duration. Parameters used to determine PK included maximum observed plasma concentration (Cmax), terminal elimination half-life (t1/2), area under the plasma concentration-time curve (AUC) from time 0 to time of last measurable concentration (AUCt), AUC from time 0 to infinity (AUC0-∞), and clearance using non-compartmental methods. Secondary objectives were preliminary evaluation of the efficacy of ABBV-467 in R/R MM and R/R AML. Preliminary efficacy endpoints were overall response rate (ORR), clinical benefit rate (CBR), and duration of response (DOR) as evaluated per adapted IMWG[36] criteria for MM and per adapted International Working Group (IWG)[37] and European Leukemia Net (ELN)[38] criteria for AML.
ABBV-467 was administered as an IV infusion once weekly, for each 28-day cycle over at least a 30-minute period beginning on day 1 of cycle 1. The first infusion was given at half the target dose level. Dosing increased from patient cohort to patient cohort; the escalation was guided by a Bayesian optimal interval design[39] on the basis of the cumulative number of patients who experienced a dose-limiting toxicity (DLT) at a given ABBV-467 dose level. The DLT observation period was defined as the first treatment cycle (cycle 1). AEs of any grade resulting in discontinuation of study drug or missing any dose as a result of toxicity unexplained by underlying disease will be considered a DLT. Any AE of grade 3 or higher will be considered a DLT, unless toxicity can solely be attributed to the underlying disease, with the following clarifications. A non-hematologic DLT was defined as: grade 3 mucositis, nausea, vomiting, or diarrhea that required total parenteral nutrition, tube feeding, or hospitalization lasting >72 h; any grade 4 non-hematologic laboratory abnormality; and any instance of an AE that met the definition of Hy’s Law.
Blood samples for plasma ABBV-467 concentration analysis were collected on days 1, 2, 3, and 15–17 of cycle 1 as well as on days 1 of cycles for PK analysis. Plasma samples of ABBV-467 were quantified using a validated LC-tandem MS with a lower limit of detection of 3 ng/mL. ABBV-467 PK parameters were calculated using standard non-compartmental approaches with Phoenix, WinNonlin (Version 8.0, Certara). AE severity was graded according to the National Cancer Institute Common Terminology Criteria for Adverse Events v5.0 for up to 30 days after the last dose. Analyses of AEs will include only treatment-emergent AEs. Triplicate ECGs were performed on days 1, 2, 15, and 16 of cycle 1. […]

Cc1c(Cl)c2c(Cl)c(C)c1-c1c(-c3ccc(F)cc3)sc3ncnc(c13)O[C@@H](C(=O)O)Cc1cc(ccc1OCc1ccnc(-c3ccc(OC[C@H]4COCCO4)cc3)n1)OC[C@@H](CN1CCN(C)CC1)O2 [ABBV-467]
Any AE, n (%) (0.32 mg/kg (n = 2)): 2 (100) n (%)
TEAE: Anemia (0.32 mg/kg (n = 2)): 1 (50) n (%)
TEAE: Arthralgia (0.32 mg/kg (n = 2)): 0 n (%)
TEAE: Arthritis (0.32 mg/kg (n = 2)): 0 n (%)
TEAE: Diarrhea (0.32 mg/kg (n = 2)): 1 (50) n (%)
TEAE: Febrile neutropenia (0.32 mg/kg (n = 2)): 0 n (%)
TEAE: Gastritis (0.32 mg/kg (n = 2)): 0 n (%)
TEAE: Increased alanine aminotransferase (0.32 mg/kg (n = 2)): 0 n (%)
TEAE: Increased amylase (0.32 mg/kg (n = 2)): 0 n (%)
TEAE: Increased aspartate aminotransferase (0.32 mg/kg (n = 2)): 0 n (%)
TEAE: Increased troponin I (0.32 mg/kg (n = 2)): 1 (50) n (%)
TEAE: Increased troponin T (0.32 mg/kg (n = 2)): 0 n (%)
TEAE: Malaise (0.32 mg/kg (n = 2)): 1 (50) n (%)
TEAE: Nausea (0.32 mg/kg (n = 2)): 0 n (%)
TEAE: Neutropenia (0.32 mg/kg (n = 2)): 0 n (%)
TEAE: Pain in extremity (0.32 mg/kg (n = 2)): 0 n (%)
TEAE: Pelvic pain (0.32 mg/kg (n = 2)): 0 n (%)
TEAE: Vitreous floaters (0.32 mg/kg (n = 2)): 0 n (%)
Any AE, n (%) (0.53 mg/kg (n = 3)): 3 (100) n (%)
TEAE: Anemia (0.53 mg/kg (n = 3)): 0 n (%)
TEAE: Arthralgia (0.53 mg/kg (n = 3)): 0 n (%)
TEAE: Arthritis (0.53 mg/kg (n = 3)): 0 n (%)
TEAE: Diarrhea (0.53 mg/kg (n = 3)): 0 n (%)
TEAE: Febrile neutropenia (0.53 mg/kg (n = 3)): 0 n (%)
TEAE: Gastritis (0.53 mg/kg (n = 3)): 0 n (%)
TEAE: Increased alanine aminotransferase (0.53 mg/kg (n = 3)): 1 (33) n (%)
TEAE: Increased amylase (0.53 mg/kg (n = 3)): 1 (33) n (%)
TEAE: Increased aspartate aminotransferase (0.53 mg/kg (n = 3)): 2 (67) n (%)
TEAE: Increased troponin I (0.53 mg/kg (n = 3)): 1 (33) n (%)
TEAE: Increased troponin T (0.53 mg/kg (n = 3)): 1 (33) n (%)
TEAE: Malaise (0.53 mg/kg (n = 3)): 0 n (%)
TEAE: Nausea (0.53 mg/kg (n = 3)): 0 n (%)
TEAE: Neutropenia (0.53 mg/kg (n = 3)): 0 n (%)
TEAE: Pain in extremity (0.53 mg/kg (n = 3)): 0 n (%)
TEAE: Pelvic pain (0.53 mg/kg (n = 3)): 0 n (%)
TEAE: Vitreous floaters (0.53 mg/kg (n = 3)): 0 n (%)
dose-limiting toxicity (1 patient, grade 3 treatment-related troponin I elevation leading to discontinuation): classified as a DLT
patients with grade 3 TEAEs (N = 8): 3 patients
patients with treatment-related AEs (N = 8): 63%
Any AE, n (%) (Total (N = 8)): 7 (88) n (%)
TEAE: Anemia (Total (N = 8)): 1 (13) n (%)
TEAE: Arthralgia (Total (N = 8)): 1 (13) n (%)
TEAE: Arthritis (Total (N = 8)): 1 (13) n (%)
TEAE: Diarrhea (Total (N = 8)): 2 (25) n (%)
TEAE: Febrile neutropenia (Total (N = 8)): 1 (13) n (%)
TEAE: Gastritis (Total (N = 8)): 1 (13) n (%)
TEAE: Increased alanine aminotransferase (Total (N = 8)): 1 (13) n (%)
TEAE: Increased amylase (Total (N = 8)): 1 (13) n (%)
TEAE: Increased aspartate aminotransferase (Total (N = 8)): 2 (25) n (%)
TEAE: Increased troponin I (Total (N = 8)): 2 (25) n (%)
TEAE: Increased troponin T (Total (N = 8)): 2 (25) n (%)
TEAE: Malaise (Total (N = 8)): 1 (13) n (%)
TEAE: Nausea (Total (N = 8)): 2 (25) n (%)
TEAE: Neutropenia (Total (N = 8)): 1 (13) n (%)
TEAE: Pain in extremity (Total (N = 8)): 1 (13) n (%)
TEAE: Pelvic pain (Total (N = 8)): 1 (13) n (%)
TEAE: Vitreous floaters (Total (N = 8)): 1 (13) n (%)
cardiac disorders (any dose cohort): No cardiac disorders of any grade
grade 5 toxicities (any dose cohort): no grade 5 toxicities
